Reference: US9422297B2, “Tricyclic compounds having cytostatic and/or cytotoxic activity and methods of use thereof” (Duquesne University of the Holy Ghost, priority 2007, dated 2016)

Columns and labels:
Type in all cases: cell-based
[1] = system: HOP-92; experiment: NCI In-Vitro Testing, Non-Small Cell Lung Cancer
[2] = system: UO-31; experiment: NCI In-Vitro Testing, Renal Cancer
[3] = system: K-562; experiment: NCI In-Vitro Testing, Leukemia
[4] = system: NCI-H23; experiment: NCI In-Vitro Testing, Non-Small Cell Lung Cancer
[5] = system: RPMI-8226; experiment: NCI In-Vitro Testing, Leukemia
[6] = system: OCRF-CEM; experiment: NCI In-Vitro Testing, Leukemia
[7] = system: SF-258; experiment: NCI In-Vitro Testing, CNS Cancer
[8] = system: MCF7; experiment: NCI In-Vitro Testing, Breast Cancer
[9] = system: ACHN; experiment: NCI In-Vitro Testing, Renal Cancer
[10] = system: OVCAR-3; experiment: NCI In-Vitro Testing, Ovarian Cancer
[11] = system: HCT-15; experiment: NCI In-Vitro Testing, Colon Cancer
[12] = system: BT-549; experiment: NCI In-Vitro Testing, Breast Cancer
[13] = system: SW-620; experiment: NCI In-Vitro Testing, Colon Cancer
[14] = system: DU-145; experiment: NCI In-Vitro Testing, Prostate Cancer
[15] = system: SK-MEL-23; experiment: NCI In-Vitro Testing, Melanoma
[16] = system: CAKI-1; experiment: NCI In-Vitro Testing, Renal Cancer
[17] = system: AS45/ATCC; experiment: NCI In-Vitro Testing, Non-Small Cell Lung Cancer
[18] = system: PC-3; experiment: NCI In-Vitro Testing, Prostate Cancer

**Q.** Which results are given for `Nc1nc2c(c(Nc3ccc(Cl)cc3)n1)-c1ccccc1C2` [AAG145-136]?
**A.** GI50 [1]: 1.81E−5 Molar; LC50 [1]: >1.00E−4 Molar; TGI [1]: >1.00E−4 Molar; Percent Growth ([1]; Log10 Concentration −4.0 Molar): 15%; Percent Growth ([1]; Log10 Concentration −5.0 Molar): 62%; Percent Growth ([1]; Log10 Concentration −6.0 Molar): 74%; Percent Growth ([1]; Log10 Concentration −7.0 Molar): 96%; Percent Growth ([1]; Log10 Concentration −8.0 Molar): 100%; GI50 [2]: 7.90E−7 Molar; LC50 [2]: >1.00E−4 Molar; TGI [2]: >1.00E−4 Molar; Percent Growth ([2]; Log10 Concentration −4.0 Molar): 31%; Percent Growth ([2]; Log10 Concentration −5.0 Molar): 31%; Percent Growth ([2]; Log10 Concentration −6.0 Molar): 46%; Percent Growth ([2]; Log10 Concentration −7.0 Molar): 88%; Percent Growth ([2]; Log10 Concentration −8.0 Molar): 105%; GI50 [3]: 3.56E−7 Molar; LC50 [3]: >1.00E−4 Molar; TGI [3]: >1.00E−4 Molar; Percent Growth ([3]; Log10 Concentration −4.0 Molar): 26%; Percent Growth ([3]; Log10 Concentration −5.0 Molar): 16%; Percent Growth ([3]; Log10 Concentration −6.0 Molar): 20%; Percent Growth ([3]; Log10 Concentration −7.0 Molar): 89%; Percent Growth ([3]; Log10 Concentration −8.0 Molar): 103%; GI50 [4]: 5.55E−7 Molar; LC50 [4]: >1.00E−4 Molar; TGI [4]: >1.00E−4 Molar; Percent Growth ([4]; Log10 Concentration −4.0 Molar): 16%; Percent Growth ([4]; Log10 Concentration −5.0 Molar): 21%; Percent Growth ([4]; Log10 Concentration −6.0 Molar): 37%; Percent Growth ([4]; Log10 Concentration −7.0 Molar): 90%; Percent Growth ([4]; Log10 Concentration −8.0 Molar): 86%; GI50 [5]: 4.89E−7 Molar; LC50 [5]: >1.00E−4 Molar; TGI [5]: >1.00E−4 Molar; Percent Growth ([5]; Log10 Concentration −4.0 Molar): 7%; Percent Growth ([5]; Log10 Concentration −5.0 Molar): 11%; Percent Growth ([5]; Log10 Concentration −6.0 Molar): 32%; Percent Growth ([5]; Log10 Concentration −7.0 Molar): 89%; Percent Growth ([5]; Log10 Concentration −8.0 Molar): 96%; GI50 [6]: 3.12E−6 Molar; LC50 [6]: >1.00E−4 Molar; TGI [6]: >1.00E−4 Molar; Percent Growth ([6]; Log10 Concentration −4.0 Molar): 11%; Percent Growth ([6]; Log10 Concentration −5.0 Molar): 6%; Percent Growth ([6]; Log10 Concentration −6.0 Molar): 8%; Percent Growth ([6]; Log10 Concentration −7.0 Molar): 22%; Percent Growth ([6]; Log10 Concentration −8.0 Molar): 77%; GI50 [7]: 8.62E−8 Molar; LC50 [7]: >1.00E−4 Molar; TGI [7]: >1.00E−4 Molar; Percent Growth ([7]; Log10 Concentration −4.0 Molar): 21%; Percent Growth ([7]; Log10 Concentration −5.0 Molar): 19%; Percent Growth ([7]; Log10 Concentration −6.0 Molar): 27%; Percent Growth ([7]; Log10 Concentration −7.0 Molar): 45%; Percent Growth ([7]; Log10 Concentration −8.0 Molar): 104%; GI50 [8]: 7.34E−8 Molar; LC50 [8]: >1.00E−4 Molar; TGI [8]: 1.41E−5 Molar; Percent Growth ([8]; Log10 Concentration −4.0 Molar): −26%; Percent Growth ([8]; Log10 Concentration −5.0 Molar): 5%; Percent Growth ([8]; Log10 Concentration −6.0 Molar): 17%; Percent Growth ([8]; Log10 Concentration −7.0 Molar): 45%; Percent Growth ([8]; Log10 Concentration −8.0 Molar): 63%; GI50 [9]: 3.42E−7 Molar; LC50 [9]: >1.00E−4 Molar; TGI [9]: 1.41E−5 Molar; Percent Growth ([9]; Log10 Concentration −4.0 Molar): −22%; Percent Growth ([9]; Log10 Concentration −5.0 Molar): 4%; Percent Growth ([9]; Log10 Concentration −6.0 Molar): 21%; Percent Growth ([9]; Log10 Concentration −7.0 Molar): 83%; Percent Growth ([9]; Log10 Concentration −8.0 Molar): 89%; GI50 [10]: 2.48E−6 Molar; LC50 [10]: >1.00E−4 Molar; TGI [10]: >1.00E−4 Molar; Percent Growth ([10]; Log10 Concentration −4.0 Molar): 14%; Percent Growth ([10]; Log10 Concentration −5.0 Molar): 22%; Percent Growth ([10]; Log10 Concentration −6.0 Molar): 66%; Percent Growth ([10]; Log10 Concentration −7.0 Molar): 86%; Percent Growth ([10]; Log10 Concentration −8.0 Molar): 91%; GI50 [11]: 4.34E−7 Molar; LC50 [11]: >1.00E−4 Molar; TGI [11]: 1.22E−5 Molar; Percent Growth ([11]; Log10 Concentration −4.0 Molar): −39%; Percent Growth ([11]; Log10 Concentration −5.0 Molar): 4%; Percent Growth ([11]; Log10 Concentration −6.0 Molar): 29%; Percent Growth ([11]; Log10 Concentration −7.0 Molar): 68%; Percent Growth ([11]; Log10 Concentration −8.0 Molar): 94%; GI50 [12]: 2.83E−6 Molar; LC50 [12]: >1.00E−4 Molar; TGI [12]: 7.58E−5 Molar; Percent Growth ([12]; Log10 Concentration −4.0 Molar): −4%; Percent Growth ([12]; Log10 Concentration −5.0 Molar): 32%; Percent Growth ([12]; Log10 Concentration −6.0 Molar): 65%; Percent Growth ([12]; Log10 Concentration −7.0 Molar): 85%; Percent Growth ([12]; Log10 Concentration −8.0 Molar): 103%; GI50 [13]: 6.30E−8 Molar; LC50 [13]: >1.00E−4 Molar; TGI [13]: >1.00E−4 Molar; Percent Growth ([13]; Log10 Concentration −4.0 Molar): 10%; Percent Growth ([13]; Log10 Concentration −5.0 Molar): 10%; Percent Growth ([13]; Log10 Concentration −6.0 Molar): 15%; Percent Growth ([13]; Log10 Concentration −7.0 Molar): 39%; Percent Growth ([13]; Log10 Concentration −8.0 Molar): 92%; GI50 [14]: 2.12E−7 Molar; LC50 [14]: >1.00E−4 Molar; TGI [14]: >1.00E−4 Molar; Percent Growth ([14]; Log10 Concentration −4.0 Molar): 7%; Percent Growth ([14]; Log10 Concentration −5.0 Molar): 18%; Percent Growth ([14]; Log10 Concentration −6.0 Molar): 37%; Percent Growth ([14]; Log10 Concentration −7.0 Molar): 56%; Percent Growth ([14]; Log10 Concentration −8.0 Molar): 95%; GI50 [15]: 1.51E−8 Molar; LC50 [15]: >1.00E−4 Molar; TGI [15]: >1.00E−4 Molar; Percent Growth ([15]; Log10 Concentration −4.0 Molar): 41%; Percent Growth ([15]; Log10 Concentration −5.0 Molar): 32%; Percent Growth ([15]; Log10 Concentration −6.0 Molar): 54%; Percent Growth ([15]; Log10 Concentration −7.0 Molar): 97%; Percent Growth ([15]; Log10 Concentration −8.0 Molar): 105%; GI50 [16]: 1.08E−6 Molar; LC50 [16]: >1.00E−4 Molar; TGI [16]: >1.00E−4 Molar; Percent Growth ([16]; Log10 Concentration −4.0 Molar): 15%; Percent Growth ([16]; Log10 Concentration −5.0 Molar): 25%; Percent Growth ([16]; Log10 Concentration −6.0 Molar): 51%; Percent Growth ([16]; Log10 Concentration −7.0 Molar): 97%; Percent Growth ([16]; Log10 Concentration −8.0 Molar): 105%; GI50 [17]: 4.34E−8 Molar; LC50 [17]: >1.00E−4 Molar; TGI [17]: >1.00E−4 Molar; Percent Growth ([17]; Log10 Concentration −4.0 Molar): 7%; Percent Growth ([17]; Log10 Concentration −5.0 Molar): 15%; Percent Growth ([17]; Log10 Concentration −6.0 Molar): 21%; Percent Growth ([17]; Log10 Concentration −7.0 Molar): 33%; Percent Growth ([17]; Log10 Concentration −8.0 Molar): 30%; GI50 [18]: 7.15E−7 Molar; LC50 [18]: >1.00E−4 Molar; TGI [18]: 7.99E−5 Molar; Percent Growth ([18]; Log10 Concentration −4.0 Molar): −2%; Percent Growth ([18]; Log10 Concentration −5.0 Molar): 18%; Percent Growth ([18]; Log10 Concentration −6.0 Molar): 40%; Percent Growth ([18]; Log10 Concentration −7.0 Molar): 111%; Percent Growth ([18]; Log10 Concentration −8.0 Molar): 104%
